Tested on: Erk1/2 phosphorylation
Assay: Erk1/2 Phosphorylation Assay (western blot), Panc-1
Assay type: cell-based, human
Details: at 10 μM, * = activation
How it was run: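 Phospho-Erk1/2 (Thr202/Tyr204) was detected by western blot in lysates of Panc-1 cells (KRas G12D). These had 6 h, 37° C exposure to 10 μM compound or a dilution series for IC50, in 0.3% DMSO. Cells were either starved overnight in 0.5% FBS with a 15-min 1.5 ng/ml EGF pulse, or kept unstimulated in 10% FBS.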

Cc1c(-c2ccn(C)n2)cn2nc(-c3nccn3C)nc(Nc3ccc(-c4ccccn4)cn3)c12 [Compound 249, N-([2,3′-Bipyridin]-6′-yl)-5-methyl-2-(1-methyl-1H-imidazol-2-yl)-6-(1-methyl-1H-pyrazol-3-yl)pyrrolo[2,1-f][1,2,4]triazin-4-amine]
% inh of Erk1/2 phosphorylation in Panc-1: D* (85-100% activation)

Cc1c(-c2ccn(C)n2)cn2nc(-c3nccn3C)nc(Oc3cc(N)[nH]n3)c12 [Compound 262, 3-((5-Methyl-2-(1-methyl-1H-imidazol-2-yl)-6-(1-methyl-1H-pyrazol-3-yl)pyrrolo[2,1-f][1,2,4]triazin-4-yl)oxy)-1H-pyrazol-5-amine]
% inh of Erk1/2 phosphorylation in Panc-1: A (1-25% inhibition)

Cc1c(-c2ccn(C)n2)cn2nc(-c3nccn3C)nc(Nc3cc(-c4ccccn4)[nH]n3)c12 [Compound 265, 5-Methyl-2-(1-methyl-1H-imidazol-2-yl)-6-(1-methyl-1H-pyrazol-3-yl)-N-(5-(pyridin-2-yl)-1H-pyrazol-3-yl)pyrrolo[2,1-f][1,2,4]triazin-4-amine]
% inh of Erk1/2 phosphorylation in Panc-1: A* (1-25% activation)

Cc1c(-c2ccn(C)n2)cn2nc(-c3nccn3C)nc(Nc3cc(C4CCC4)[nH]n3)c12 [Compound 257, N-(5-Cyclobutyl-1H-pyrazol-3-yl)-5-methyl-2-(1-methyl-1H-imidazol-2-yl)-6-(1-methyl-1H-pyrazol-3-yl)pyrrolo[2,1-f][1,2,4]triazin-4-amine]
% inh of Erk1/2 phosphorylation in Panc-1: C* (46-84% activation)

Cc1c(-c2ccn(C)n2)cn2nc(-c3nccn3C)nc(Nc3cc(C(F)F)[nH]n3)c12 [Compound 258, N-(5-(Difluoromethyl)-1H-pyrazol-3-yl)-5-methyl-2-(1-methyl-1H-imidazol-2-yl)-6-(1-methyl-1H-pyrazol-3-yl)pyrrolo[2,1-f][1,2,4]triazin-4-amine]
% inh of Erk1/2 phosphorylation in Panc-1: A* (1-25% activation)

COc1cccc(Nc2nc(-c3nccn3C)nn3ccc(-c4ccccc4)c23)n1 [Compound 40, N-(6-Methoxypyridin-2-yl)-2-(1-methyl-1H-imidazol-2-yl)-5-phenylpyrrolo[2,1-f][1,2,4]triazin-4-amine]
% inh of Erk1/2 phosphorylation in Panc-1: 0 (0% inhibition)

COc1cc(Nc2nc(-c3nccn3C)nn3cc(-c4ccn(C)n4)c(C)c23)nn1C [Compound 253, N-(5-Methoxy-1-methyl-1H-pyrazol-3-yl)-5-methyl-2-(1-methyl-1H-imidazol-2-yl)-6-(1-methyl-1H-pyrazol-3-yl)pyrrolo[2,1-f][1,2,4]triazin-4-amine]
% inh of Erk1/2 phosphorylation in Panc-1: C* (46-84% activation)

Cc1c(-c2ccn(C)n2)cn2nc(-c3nccn3C)nc(Nc3cc(-n4ccnc4)ccn3)c12 [Compound 245, N-(4-(1H-imidazol-1-yl)pyridin-2-yl)-5-methyl-2-(1-methyl-1H-imidazol-2-yl)-6-(1-methyl-1H-pyrazol-3-yl)pyrrolo[2,1-f][1,2,4]triazin-4-amine]
% inh of Erk1/2 phosphorylation in Panc-1: 0 (0% inhibition)

Cc1c(-c2ccn(C)n2)cn2nc(-c3nccn3C)nc(Nc3cc(OC(F)F)n(C)n3)c12 [Compound 254, N-(5-(Difluoromethoxy)-1-methyl-1H-pyrazol-3-yl)-5-methyl-2-(1-methyl-1H-imidazol-2-yl)-6-(1-methyl-1H-pyrazol-3-yl)pyrrolo[2,1-f][1,2,4]triazin-4-amine]
% inh of Erk1/2 phosphorylation in Panc-1: D* (85-100% activation)

Cc1c(-c2ccn(C)n2)cn2nc(-c3nccn3C)nc(Nc3cc(-c4ccccn4)ccn3)c12 [Compound 248, N-([2,4′-Bipyridin]-2′-yl)-5-methyl-2-(1-methyl-1H-imidazol-2-yl)-6-(1-methyl-1H-pyrazol-3-yl)pyrrolo[2,1-f][1,2,4]triazin-4-amine]
% inh of Erk1/2 phosphorylation in Panc-1: C* (46-84% activation)

Cc1c(-c2ccn(C)n2)cn2nc(-c3nccn3C)nc(Nc3cc(-c4ccncc4)[nH]n3)c12 [Compound 266, 5-Methyl-2-(1-methyl-1H-imidazol-2-yl)-6-(1-methyl-1H-pyrazol-3-yl)-N-(5-(pyridin-4-yl)-1H-pyrazol-3-yl)pyrrolo[2,1-f][1,2,4]triazin-4-amine]
% inh of Erk1/2 phosphorylation in Panc-1: D (85-100% inhibition)

CCOc1cc(Nc2nc(-c3nccn3C)nn3cc(-c4ccn(C)n4)c(C)c23)n[nH]1 [Compound 260, N-(5-Ethoxy-1H-pyrazol-3-yl)-5-methyl-2-(1-methyl-1H-imidazol-2-yl)-6-(1-methyl-1H-pyrazol-3-yl)pyrrolo[2,1-f][1,2,4]triazin-4-amine]
% inh of Erk1/2 phosphorylation in Panc-1: A* (1-25% activation)

Cc1c(-c2ccn(C)n2)cn2nc(-c3nccn3C)nc(Nc3ccc(N4CCOCC4)cn3)c12 [Compound 247, 5-Methyl-2-(1-methyl-1H-imidazol-2-yl)-6-(1-methyl-1H-pyrazol-3-yl)-N-(5-morpholinopyridin-2-yl)pyrrolo[2,1-f][1,2,4]triazin-4-amine]
% inh of Erk1/2 phosphorylation in Panc-1: D* (85-100% activation)

COc1cc(Nc2nc(-c3nccn3C)nn3cc(-c4cccnc4)c(C)c23)ncn1 [Compound 48, N-(6-Methoxypyrimidin-4-yl)-5-methyl-2-(1-methyl-1H-imidazol-2-yl)-6-(pyridin-3-yl)pyrrolo[2,1-f][1,2,4]triazin-4-amine]
% inh of Erk1/2 phosphorylation in Panc-1: A (1-25% inhibition)

Cc1c(-c2ccn(C)n2)cn2nc(-c3nccn3C)nc(-n3[nH]c(N)cc3=O)c12 [Compound 261, 5-Amino-2-(5-methyl-2-(1-methyl-1H-imidazol-2-yl)-6-(1-methyl-1H-pyrazol-3-yl)pyrrolo[2,1-f][1,2,4]triazin-4-yl)-1,2-dihydro-3H-pyrazol-3-one]
% inh of Erk1/2 phosphorylation in Panc-1: B (26-49% inhibition)

Cc1c(-c2ccn(C)n2)cn2nc(-c3nccn3C)nc(N3CCc4cc(C(F)(F)F)cnc43)c12 [Compound 251, 5-Methyl-2-(1-methyl-1H-imidazol-2-yl)-6-(1-methyl-1H-pyrazol-3-yl)-4-(5-(trifluoromethyl)-2,3-dihydro-1H-pyrrolo[2,3-b]pyridin-1-yl)pyrrolo[2,1-f][1,2,4]triazine]
% inh of Erk1/2 phosphorylation in Panc-1: B (26-49% inhibition)

Cc1cc(Nc2nc(-c3nccn3C)nn3cc(-c4ccn(C)n4)c(C)c23)n[nH]1 [Compound 255, 5-Methyl-2-(1-methyl-1H-imidazol-2-yl)-6-(1-methyl-1H-pyrazol-3-yl)-N-(5-methyl-1H-pyrazol-3-yl)pyrrolo[2,1-f][1,2,4]triazin-4-amine]
% inh of Erk1/2 phosphorylation in Panc-1: A (1-25% inhibition)

COc1cc(-c2cn3nc(-c4nccn4C)nc(Nc4cc(OC)ncn4)c3c2C)ccn1 [Compound 50, 6-(2-Methoxypyridin-4-yl)-N-(6-methoxypyrimidin-4-yl)-5-methyl-2-(1-methyl-1H-imidazol-2-yl)pyrrolo[2,1-f][1,2,4]triazin-4-amine]
% inh of Erk1/2 phosphorylation in Panc-1: B* (26-49% activation)

COc1ccnc(Nc2nc(-c3nccn3C)nn3cc(-c4ccn(C)n4)c(C4CC4)c23)c1 [Compound 276, 5-Cyclopropyl-N-(4-methoxypyridin-2-yl)-2-(1-methyl-1H-imidazol-2-yl)-6-(1-methyl-1H-pyrazol-3-yl)pyrrolo[2,1-f][1,2,4]triazin-4-amine]
% inh of Erk1/2 phosphorylation in Panc-1: D* (85-100% activation)

Cc1c(-c2ccn(C)n2)cn2nc(-c3nccn3C)nc(Nc3cc(-c4ccccc4)[nH]n3)c12 [Compound 263, 5-Methyl-2-(1-methyl-1H-imidazol-2-yl)-6-(1-methyl-1H-pyrazol-3-yl)-N-(5-phenyl-1H-pyrazol-3-yl)pyrrolo[2,1-f][1,2,4]triazin-4-amine]
% inh of Erk1/2 phosphorylation in Panc-1: A (1-25% inhibition)

COc1cccc(-c2cn3nc(-c4nccn4C)nc(N[C@@H]4CC[C@H]4OC)c3c2-c2ccccc2)c1C (racemic) [Compound 272, rac 6-(3-Methoxy-2-methylphenyl)-N-((1R,2R)-2-methoxycyclobutyl)-2-(1-methyl-1H-imidazol-2-yl)-5-phenylpyrrolo[2,1-f][1,2,4]triazin-4-amine]
% inh of Erk1/2 phosphorylation in Panc-1: D (85-100% inhibition)

Cc1c(-c2ccn(C(C)C)n2)cn2nc(-c3nccn3C)nc(Nc3cc(C4CC4)n[nH]3)c12 [Compound 68, N-(3-Cyclopropyl-1H-pyrazol-5-yl)-6-(1-isopropyl-1H-pyrazol-3-yl)-5-methyl-2-(1-methyl-1H-imidazol-2-yl)pyrrolo[2,1-f][1,2,4]triazin-4-amine]
% inh of Erk1/2 phosphorylation in Panc-1: D* (85-100% activation)

COc1ccc(F)c(-c2cn3nc(-c4nccn4C)nc(N[C@H]4C[C@H](OC)C4)c3c2-c2ccccc2)c1F [Compound 273, 6-(2,6-Difluoro-3-methoxyphenyl)-N-((1r,3r)-3-methoxycyclobutyl)-2-(1-methyl-1H-imidazol-2-yl)-5-phenylpyrrolo[2,1-f][1,2,4]triazin-4-amine]
% inh of Erk1/2 phosphorylation in Panc-1: D (85-100% inhibition)

COc1ccc(Nc2nc(-c3nccn3C)nn3cc(-c4ccn(C(C)C)n4)c(C)c23)nn1 [Compound 74, 6-(1-Isopropyl-1H-pyrazol-3-yl)-N-(6-methoxypyridazin-3-yl)-5-methyl-2-(1-methyl-1H-imidazol-2-yl)pyrrolo[2,1-f][1,2,4]triazin-4-amine]
% inh of Erk1/2 phosphorylation in Panc-1: D* (85-100% activation)

COc1cc(Nc2nc(-c3nccn3C)nn3cc(-c4ccncc4)c(C)c23)ncn1 [Compound 49, N-(6-Methoxypyrimidin-4-yl)-5-methyl-2-(1-methyl-1H-imidazol-2-yl)-6-(pyridin-4-yl)pyrrolo[2,1-f][1,2,4]triazin-4-amine]
% inh of Erk1/2 phosphorylation in Panc-1: B* (26-49% activation)

COc1cc(Nc2nc(-c3nccn3C)nn3cc(-c4ccn(C)n4)c(C)c23)ncc1-n1cnc(C)c1 [Compound 244, N-(4-Methoxy-5-(4-methyl-1H-imidazol-1-yl)pyridin-2-yl)-5-methyl-2-(1-methyl-1H-imidazol-2-yl)-6-(1-methyl-1H-pyrazol-3-yl)pyrrolo[2,1-f][1,2,4]triazin-4-amine]
% inh of Erk1/2 phosphorylation in Panc-1: 0 (0% inhibition)

Reference: patent US12459951B2, “Compounds that interact with RAS superfamily proteins for treatment of cancers, inflammatory diseases, rasopathies, and fibrotic disease” (SHY Therapeutics, LLC, priority 2022, dated 2025)
